Patent US8420851B2, “Selective TR-β 1 agonist” (Cadila Healthcare Limited, priority 2006, dated 2013)

Key:
[1] = target: T1, TR-β (Homo sapiens, UniProt P10828); assay: In vitro TR-β activity (in-house protocol); format: cell-based; conditions: for fold induction at 0.01 µM: Conc. 10 nM; for fold induction at 0.01 µM / fold induction at 0.1 µM / fold induction at 1 µM / fold induction at 0.001 µM: read-out: TR-β Fold Induction w.r.t T3(100 nm); for fold induction at 0.1 µM: Conc. 100 nM; for fold induction at 1 µM: Conc. 1000 nM; for fold induction at 0.001 µM: Conc. 1 nM
T1 sequence (P10828 1-461): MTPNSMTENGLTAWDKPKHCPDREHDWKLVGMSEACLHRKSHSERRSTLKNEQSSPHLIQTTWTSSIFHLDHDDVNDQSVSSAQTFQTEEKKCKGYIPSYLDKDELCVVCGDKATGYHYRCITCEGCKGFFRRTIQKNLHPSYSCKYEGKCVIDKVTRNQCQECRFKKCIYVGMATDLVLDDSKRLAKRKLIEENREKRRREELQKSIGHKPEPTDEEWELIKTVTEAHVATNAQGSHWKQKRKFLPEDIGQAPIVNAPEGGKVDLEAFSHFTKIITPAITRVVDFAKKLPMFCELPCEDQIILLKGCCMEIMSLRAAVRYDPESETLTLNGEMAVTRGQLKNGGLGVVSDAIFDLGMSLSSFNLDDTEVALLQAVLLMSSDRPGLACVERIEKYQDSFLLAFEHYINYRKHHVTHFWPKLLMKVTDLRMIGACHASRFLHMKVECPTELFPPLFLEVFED
Procedure: (§1) Invitro TR-α & TR-β activities were determined as per in-house protocols and the results of representative compounds are provided in tables 1 & 2 below as a proof of the efficacies of the novel class of compounds disclosed above.

[2] = target: T2, TR-α (Homo sapiens, UniProt P10827); assay: In vitro TR-α activity (in-house protocol); format: cell-based
T2 sequence (P10827 1-410 isoform P10827-2): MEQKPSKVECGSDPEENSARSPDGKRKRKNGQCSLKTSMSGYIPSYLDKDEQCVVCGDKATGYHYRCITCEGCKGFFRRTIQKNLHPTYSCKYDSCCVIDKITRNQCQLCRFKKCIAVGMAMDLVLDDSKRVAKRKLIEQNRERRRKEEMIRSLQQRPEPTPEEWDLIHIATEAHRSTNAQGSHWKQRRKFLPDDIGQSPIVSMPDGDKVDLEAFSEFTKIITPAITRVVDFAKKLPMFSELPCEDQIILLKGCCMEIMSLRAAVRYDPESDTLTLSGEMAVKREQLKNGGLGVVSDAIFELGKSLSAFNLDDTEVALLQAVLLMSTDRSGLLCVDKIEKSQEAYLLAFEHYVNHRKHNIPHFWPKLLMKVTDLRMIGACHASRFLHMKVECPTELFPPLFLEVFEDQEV
Procedure: as §1

Structure (SMILES)	EC50 [1] [nM]	EC50 [2] [nM]	fold induction at 0.01 µM [1]	fold induction at 0.1 µM [1]	fold induction at 1 µM [1]	TR-α Fold Induction w.r.t T3(100 nm) ([2]; Conc. 10 nM)	TR-α Fold Induction w.r.t T3(100 nm) ([2]; Conc. 100 nM)	TR-α Fold Induction w.r.t T3(100 nm) ([2]; Conc. 1000 nM)	fold induction at 0.001 µM [1]	TR-α Fold Induction w.r.t T3(100 nm) ([2]; Conc. 1 nM)
CCOC(=O)N(CC(=O)O)c1cc(Cl)c(Oc2ccc(O)c(C(C)C)c2)c(Cl)c1 [Example 1, {[3,5-Dichloro-4-(4-hydroxy-3-isopropyl-phenoxy)-phenyl]-ethoxycarbonyl-amino}-acetic acid]	146	440								
CCOC(=O)N(CC(=O)O)c1cc(Cl)c(Oc2ccc(O)c(C(C)CC)c2)c(Cl)c1 (stereo not shown) [Example 2, {[4-(3-sec-Butyl-4-hydroxy-phenoxy)-3,5-dichloro-phenyl]-ethoxycarbonyl-amino}-acetic acid]	162	119								
CCOC(=O)N(CC(=O)O)c1cc(Cl)c(Oc2ccc(O)c(Cc3ccccc3)c2)c(Cl)c1 [Example 3, {[4-(3-Benzyl-4-hydroxy-phenoxy)-3,5-dichloro-phenyl]-ethoxycarbonyl-amino}-acetic acid]	89	274								
CCOC(=O)N(CC(=O)O)c1cc(Cl)c(Oc2ccc(O)c(C(C)(C)C)c2)c(Cl)c1 [Example 13, {[4-(3-tert-Butyl-4-hydroxy-phenoxy)-3,5-dichloro-phenyl]-ethoxycarbonyl-amino}-acetic acid]			44.2	80.6	75	49.80	96.60	72.90		
CCOC(=O)N(CC(=O)O)c1cc(Cl)c(Oc2ccc(O)c(-c3ccccc3)c2)c(Cl)c1 [Example 14, {[3,5-Dichloro-4-(6-hydroxy-biphenyl-3-yloxy)-phenyl]-ethoxycarbonyl-amino}-acetic acid]			16.4	58.5	77.3	11.10	36.30	45.90		
CCOC(=O)N(CC(=O)O)c1cc(Cl)c(Oc2ccc(O)c(C(=O)c3ccc(F)cc3)c2)c(Cl)c1 [Example 15, ({3,5-Dichloro-4-[3-(4-fluoro-benzoyl)-4-hydroxy-phenoxy]-phenyl}-ethoxycarbonyl-amino)-acetic acid]			23.5	70.5	66.8	11.34	39.66	33.74		
CCOC(=O)N(CC(=O)O)c1cc(Cl)c(Oc2ccc(O)c(C(=O)c3ccc(Cl)s3)c2)c(Cl)c1 [Example 17, ({3,5-Dichloro-4-[3-(5-chloro-thiophene-2-carbonyl)-4-hydroxy-phenoxy]-phenyl}-ethoxycarbonyl-amino)-acetic acid]			27.7	72.8	77.9	21.19	51.82	53.12		
CCOC(=O)N(CC(=O)O)c1cc(C)c(Oc2ccc(O)c(C(C)CC)c2)c(C)c1 (stereo not shown) [Example 18, {[4-(3-sec-Butyl-4-hydroxy-phenoxy)-3,5-dimethyl-phenyl]-ethoxycarbonyl-amino}-acetic acid]			18.6	23	42.6	8.90	12.97	16.87	9.44	6.62
CCOC(=O)N(CC(=O)O)c1cc(Cl)c(Oc2ccc(O)c(C(=O)c3ccc(Cl)cc3)c2)c(Cl)c1 [Example 20, ({3,5-Dichloro-4-[3-(4-chloro-benzoyl)-4-hydroxy-phenoxy]-phenyl}-ethoxycarbonyl-amino)-acetic acid]			40.7	87.7	81.2	15.74	21.47	18.49	19.9	10.42
CCC(C)c1cc(Oc2c(C)cc(N(CC(=O)O)CC(=O)O)cc2C)ccc1O (stereo not shown) [Example 21, {[4-(3-sec-Butyl-4-hydroxy-phenoxy)-3,5-dimethyl-phenyl]-carboxymethyl-amino}-acetic acid]			153	202	148	56.81	110.66	93.53	33.4	17.17
CCC(C)c1cc(Oc2c(Cl)cc(N(CC(=O)O)C(=O)Oc3ccc(O)cc3)cc2Cl)ccc1O (stereo not shown) [Example 23, [[4-(3-sec-Butyl-4-hydroxy-phenoxy)-3,5-dichloro-phenyl]-(4-hydroxy-phenoxycarbonyl)-amino]-acetic acid]	2.6	9.26								
CCOC(=O)N(CC(=O)O)c1cc(Cl)c(Oc2ccc(O)c(C(=O)c3ccc(C(C)(C)C)cc3)c2)c(Cl)c1 [Example 24, ({4-[3-(4-tert-Butyl-benzoyl)-4-hydroxy-phenoxy]-3,5-dichloro-phenyl}-ethoxycarbonyl-amino)-acetic acid]			40	100	75	20.00	50.00	70.00	20	10.00
CCOC(=O)N(CC(=O)O)c1cc(Cl)c(Oc2ccc(O)c(C(=O)c3cccc(Cl)c3)c2)c(Cl)c1 [Example 25, ({3,5-Dichloro-4-[3-(3-chloro-benzoyl)-4-hydroxy-phenoxy]-phenyl}-ethoxycarbonyl-amino)-acetic acid]			26.3	70.1	51.7	8.55	12.70	7.15	10.9	4.22
CCC(C)c1cc(Oc2c(Cl)cc(N(CC(=O)O)CC(=O)O)cc2Cl)ccc1O (stereo not shown) [Example 26, {[4-(3-sec-Butyl-4-hydroxy-phenoxy)-3,5-dichloro-phenyl]-carboxymethyl-amino}-acetic acid]	28.1	176								
O=C(O)CN(CC(=O)O)c1cc(Cl)c(Oc2ccc(O)c(C(=O)c3ccc(Cl)cc3)c2)c(Cl)c1 [Example 28, (Carboxymethyl-{3,5-dichloro-4-[3-(4-chloro-benzoyl)-4-hydroxy-phenoxy]-phenyl}-amino)-acetic acid]			20.9	45.4	46.1	14.71	25.77	33.47	10.4	8.97
CC(C)c1cc(Oc2c(Cl)cc(N(CC(=O)O)CC(=O)O)cc2Cl)ccc1O [Example 31, {Carboxymethyl-[3,5-dichloro-4-(4-hydroxy-3-isopropyl-phenoxy)-phenyl]-amino}-acetic acid]			27.8	64.3	75.2	17.06	50.99	46.21	12.1	8.17
CC(C)c1cc(Oc2c(Cl)cc(N(CC(=O)O)C(=O)Oc3ccc(O)cc3)cc2Cl)ccc1O [Example 32, [[3,5-Dichloro-4-(4-hydroxy-3-isopropyl-phenoxy)-phenyl]-(4-hydroxy-phenoxycarbonyl)-amino]-acetic acid]			73.7	119	94.9	74.20	87.50	72.37	24.7	23.36
O=C(O)CN(CC(=O)O)c1cc(Cl)c(Oc2ccc(O)c(S(=O)(=O)N3CCCCC3)c2)c(Cl)c1 [Example 33, (Carboxymethyl-{3,5-dichloro-4-[4-hydroxy-3-(piperidine-1-sulfonyl)-phenoxy]-phenyl}-amino)-acetic acid]			11.9	26	46.8	13.90	25.46	46.33	8.63	9.66
